# Test results: patent publication US20160144021A1, “Vaccine Composition And Method Of Use” (MEDIMMUNE, LLC, priority 2013, published 2016)
# Experiments:
# RSV A2 [1] = assay: RSV A2-GFP microneutralization of sera, naive Sprague Dawley rats; assay type: in vivo; details: Day 22, 22 days post Dose 1; RSV sF 10 and 100 μg groups
# Method: (§1) In a subsequent study, the immunogenicity and protection following a prime-boost regimen of RSV-SF was evaluated. 40 naive female Sprague Dawley rats were divided into designated vaccine cohorts of 5-6 animals per cohort. Briefly, test groups were given RSV sF (10 μg or 100 μg per animal) without adjuvant or RSV sF (10 μg or 100 μg per animal) with GLA-SE (2.5 μg in 2% SE). Negative control groups were dosed with placebo (PBS buffer) or adjuvant GLA-SE (2.5 μg/2%) without RSV sF. […] Groups 1-6 were inoculated IM with 500 μL of designated vaccine article on Day 0 and Day 22, while Group 7 was inoculated IN with 200 μL of RSV A2 virus on day 0 only. […] Rats were euthanized at 4 days post challenge on Day 46, the day of peak viral replication determined from Study 1. Lungs (excluding 1 lobe which was formalin-fixed) and noses were homogenized and quantified for viral titers.
# (§2) Serological responses to vaccination were evaluated at 6 hours post immunization, D22, and D42 for all animals and at Day 14 for a subset of 3 animals per group. […] Serum obtained 6 hours post-immunization was evaluated for cytokine titers by multiplexed ELISA. Serum from Days 14, 22, and 42 were measured for total anti-F IgG ELISA endpoint dilution titers. Day 42 serum was evaluated for the specific contribution of IgG1, IgG2a, and IgG2b anti-F responses by ELISA endpoint dilution titers. […]
# RSV A2 [2] = assay: Lung viral titers by plaque assay after RSV challenge, naive BALB/c mice; assay type: in vivo
# RSV sF protein = assay: IFNγ and IL-4 ELISPOT of splenocytes, naive cotton rats; assay type: in vivo; details: splenocytes 4 days post challenge, RSV sF restimulation
# Method: Paired antibodies for cotton rat IFNγ (#DY565) or IL-4 (#DY584) obtained in R&D DuoSet ELISA Systems were used in ELISPOT assay formats for the evaluation of cotton rat cellular immune responses. 96 well PVDF plates (Millipore, Billerica, Mass.) were coated overnight with kit provided capture antibody (anti-IFNγ or anti-IL-4, respectively) at 10 μg/mL in PBS. Plates were blocked with cRPMI-5 for 2 hours. Cells were then incubated on blocked coated plates in cRPMI-5 for 36-48 hours in triplicate with media, RSV sF ([…]), or ConA (5 μg/mL) as a positive control. Following incubation cells were washed away, plates were incubated with included biotinylated detection antibody (1 μg/mL in PBS+1% BSA) followed by streptavidin-HRP (Mabtech, Cincinnati, Ohio) and 3-amino-9-ethylcarbazole (AEC, Vector Labs, Burlingame, Calif.). Plates were read and analyzed using a CTL ImmunoSpot reader and software (Cellular Technology Ltd).
# RSV sF = assay: Serum anti-F IgG and isotype ELISA, naive Sprague Dawley rats; assay type: in vivo; details: Day 42
# Method: as §1, §2
# [3] = tested on: IFNγ, IL-5, IL-13, eotaxin, RANTES; assay: Lung cytokines 4 days post challenge, highly seropositive BALB/c mice
# Method: (§3) One hundred three female BALB/c mice (Charles River), ages 6-8 weeks old, were divided into 13 groups. Group 1 had 7 mice and groups 2 through 13 had 8 mice. Following anaesthetization groups 1 through 12 were dosed with 1×10^6 plaque forming units (PFU) in 100 μL of live RSV via an intranasal (IN) route on Day 0 and Day 35. Group 13 was not exposed to RSV. On Day 56, groups 1 through 11 were immunized with placebo (PBS) or vaccine article via an intramuscular (IM) route following anesthesia with isoflurane. The vaccine articles were formulated in a total of 100 μL with 50 μL given in each hind limb. Group 12 was anesthetized with isoflurane and immunized with 1×10^6 PFU in 100 μL of live RSV via an IN route. […] Sera were obtained from retro orbital blood collection at study days 0, 28, 56 70 and 84, separated from whole blood and stored at −20° C. until evaluated. Spleens from 4 animals in each group were harvested for T cell assays on Day 67, 11 days post immunization, or at day 88, 4 days post challenge. Lung cytokines quantified at 4 days after challenge in individual lung homogenates by luminex assay (Milipore).
# Mouse cytokine/chemokine multiplex kits designed to include IFNgamma, IL-5, IL-13, IL-17 and eotaxin (Millipore, Billerica, Mass.) were used to evaluate lung homogenates. Lung homogenates were clarified by centrifugation prior to use. Assays were performed following manufacturer's instructions and plates were analyzed on a Luminex reader (Bio-Rad, Hercules, Calif.).
# RSV A2 [4] = assay: GFP-tagged RSV A2 micro-neutralization of sera, naive BALB/c mice; assay type: in vivo; details: day 28, prior to challenge, 0.3 μg RSV sF days 0 and 14
# RSV A2 [5] = assay: RSV microneutralization of sera, highly (2x) RSV seropositive BALB/c mice; assay type: in vivo; details: very small amounts of antigen
# Method: as §3
# [6] = tested on: F-derived CD8 peptide (KYKNAVTEL); assay: CD8 IFNγ ELISPOT of splenocytes, 1x RSV seropositive BALB/c mice; assay type: in vivo
# Method: Systemic cellular immune responses to vaccination were evaluated in representative animals at Day 10 post vaccination. Additional representative animals were recalled with a viral challenge at Day 69 and evaluated for long-term cellular immune responses at Day 73, 4 days post viral challenge. For each of the groups, 3-5 individual splenocyte samples were prepared. CD4 T-cell readouts were assessed by multiplexed cytokine analysis of supernatant levels of a panel of secreted cytokines (including IFNγ, IL-5, IL-10, IL-13, and IL-17) following a 72-hour restimulation period with RSV sF. CD8 T-cell readouts were assessed by 2 methods: ELISPOT counts of IFNγ-secreting cells following a 36-48 hour restimulation period with an F-derived CD8 peptide ([…] aa 85-93) (SEQ ID NO: 12) and intracellular staining and quantification of the percentage of F-specific polyfunctional (IFNγ+ TNFα+IL-2+) CD8 T cells following a 5-hour restimulation period with the F-derived CD8 peptide.
substance,measurement,setting,value
"RSV sF: RSV soluble F protein, amino acids 1-524 of the RSV A2 F sequence lacking the transmembrane domain, given without adjuvant",serum neutralizing titers (log2 GMT IC50),RSV A2 [1],not significantly different from placebo
same,animals having detectable lung viral titers,RSV A2 [2]; 4 days post challenge,4/7
same,lung protection (full = 100-fold reduction vs PBS),RSV A2 [2]; 4 days post challenge,partial lung protection
same,detectable lung viral titers (individual animals),"RSV A2 [2]; naive BALB/c, IM days 0 and 14, 0.3 μg RSV sF, challenge day 28, 4 days post challenge",2.3-3.0 log10 pfu/gram
same,F-specific IFNγ ELISPOT response (mean),RSV sF protein,58 SFU/million cells
same,F-specific isotype balance,RSV sF,higher IgG1 titers than IgG2b titers
same,lung RANTES following RSVA2 exposure,[3]; 4 days post challenge,increased with increasing amounts of RSV sF
same,lung eotaxin and IL-13 upon RSV challenge,[3]; 4 days post challenge,did not induce eotaxin or IL-13 levels higher than any of the other groups
same,lung IL-5 in response to RSV challenge,"[3]; day 88, 4 days post challenge",did not set up mice to induce IL-5
same,serum RSV neutralizing titers,RSV A2 [4],4.1 log2
same,neutralization level lower than that of the highest adjuvanted RSV sF dose of 50 μg,RSV A2 [5],approximately 6 fold
same,F-specific CD8 IFNγ ELISPOT response,"[6]; Day 10 post vaccination, highest dose (10 μg) RSV sF",224 SFU/million
same,F-specific CD8 IFNγ ELISPOT response (mean),"[6]; Day 10 post vaccination, range across RSV sF doses 0.4-10 μg",72-224 SFU/million
same,recall F-specific CD8 IFNγ ELISPOT response (means),"[6]; Day 73, 4 days post RSV challenge, range across RSV sF doses",62-243 SFU/million
